Data published in patent US7915297B2, “Isoxazole derivatives and use thereof” (SK Holdings Co., Ltd., priority 2005, dated 2011).

Experiments:
[1] = system: ovariectomized ICR mice; assay: In vivo osteoporosis assay in ovariectomized ICR mice (DEXA, micro-CT of spine L3-L6); settings: for BMD (g/cm^2) Avg. ± SD / BMD Change (%) / Trabeculae volume Change (%) / Trabeculae volume(mm^2) Avg. ± SD: four weeks; for BMD (g/cm^2) Avg. ± SD: spine L3-L6, DEXA; for BMD Change (%) / Trabeculae volume Change (%): Sham = 0.0
Protocol: Experimental animals were female ICR mice having body weights of 24-28 g which were about 7 weeks old. In each cage, measuring 40×25×17 cm, 2-3 mice were reared at 22° C., RH 50%.
Ovariectomy is known as one of the most widely used techniques for inducing osteoporosis. As in postmenopause case, the ovariectomy-operation induce estrogen insufficient, result in decrease of osteogenesis and increase of bone resorption, lead to osteoporosis. Anaesthetized 7-week-old female ICR mice underwent ovariectomies and, immediately after the removal of both ovaries, they were administered with test compounds to determine the preventive and therapeutic effects thereof on osteoporosis.
1) Preparation of test material: Predetermined amounts of Derivative (1) were suspended in 0.5% CMC to prepare test materials to be administered. As for the control drug alendronate, 0.17% citric acid was added thereto as a pharmacopoeia to aid in the uptake of the drug.
2) Administration period: four weeks
3) Administration route and method: test materials were administered in a volume of 10 ml/kg of body weight, measured on the administration day, into seven groups: (1) intact control (ICR mice bred with typical diet, control); (2) ovariectomy control (the abdomen opened and closed without removal of the ovary, Sham); (3) ovariectomy group (ovaries removed, OVX); (4) alendronate-treated group (a dose of 5 mg/kg/day); (5) Derivative (1) 30 mg/kg/day treated group (OVX+Derivative (1) 30 mpk); (6) Derivative (1) 90 mg/kg/day treated group (OVX+Derivative (1) 90 mpk); and (7) Derivative (1) […] treated group (OVX+Derivative (1) 30 mpkW). Groups (1)˜(6) were orally treated five day a week for four weeks while group (7) was treated once a week for four weeks.
After administration for four weeks, the spine (L3-L6) was analyzed for bone mineral density (BMD) through dual-energy X-ray absorptiometry (DEXA) using a Lunar Pixi #5 instrument. Micro-computed tomography (Micro-CT) was performed to determine the effects of the test materials on bone mass and bone strength and on the tertiary bone mass of the spine (L3-L6).

[2] = system: Wnt/β-catenin signaling (β-catenin activity) in HEK293 cell line; assay: Cell-based Wnt agonist screening, TCF luciferase reporter, HEK293 (TCF-FL); parameters: species or system human; settings: Homo sapiens, HEK293, 24 h, % of LiCl (20 mM), 24 h, read-out: Max. Activity (%)
Procedure, shortened: (§1)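 HEK293 and SW480 lines stably carried a 5X TCF firefly luciferase reporter under G418 selection. Cells (8,000–15,000/well, RPMI 1640 with 5% FBS) were grown 24 h, then treated with compound for 24 h. Luciferase activity was expressed as percent of the 20 mM LiCl positive control.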

[3] = system: Wnt/β-catenin signaling (β-catenin activity) in SW480 cell line; assay: Cell-based Wnt agonist screening, TCF luciferase reporter, SW480 (TCF-FL); parameters: species or system human; settings: Homo sapiens, % of LiCl (20 mM), 24 h, read-out: Max. Activity (%)
Procedure, shortened: as §1

[4] = system: ST-2, a murine bone marrow stromal T cell; assay: Differentiation of ST2 cell line into osteoblasts, alkaline phosphatase activity; type: cell-based; settings: Mus musculus, 96 h; ST-2 cells, 11 μM compound, 4 days; control treated only with ascorbic acid and β-glycerolphosphate = 100; read-out: ALP Activity (% Control)
Procedure, shortened: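 Murine ST-2 stromal cells in MEM with 5% FBS were treated with compounds (11 μM, 4 days) in medium with 50 μg/ml ascorbic acid and 5 mM β-glycerolphosphate. ALP activity read by luminescence kit, expressed as % of ascorbate/β-glycerolphosphate-only control.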

[5] = Group 4 (OVX + AD): alendronate 5 mg/kg/day, oral
[6] = Group 5 (OVX + D30): 30 mg/kg/day, oral
[7] = Group 6 (OVX + D90): 90 mg/kg/day, oral
[8] = Group 7 (OVX + W30): 90 mg/kg/week (30 mpkW), once a week

## NCCCC(O)(P(=O)(O)O)P(=O)(O)O [Alendronate, alendronate, reference compound]
[1]; Group 4 (OVX + AD): alendronate 5 mg/kg/day, oral, five day a week
  BMD (g/cm^2) Avg. ± SD: 0.066 ± 0.012 g/cm^2
[1]; [5]
  BMD Change (%): −4.3%
  Trabeculae volume Change (%): −25.1%
[1]; Group 4 (OVX + AD): alendronate 5 mg/kg/day, oral, spine L3-L6, micro-CT
  Trabeculae volume(mm^2) Avg. ± SD: 15.5 ± 3.27 mm^2

## O=C(NCCCn1ccnc1)c1cc(-c2ccco2)on1 [Derivative (1), 5-furan-2-yl-isoxazole-3-carboxylic acid (3-imidazol-1-yl-propyl)-amide]
[2]; Conc. 60 μM
  Emax at 60 µM: 70%
[3]; Con. 120 μM
  Emax at 120 µM: 957%
[1]; Group 5 (OVX + D30): 30 mg/kg/day, oral, five day a week
  BMD (g/cm^2) Avg. ± SD: 0.061 ± 0.007 g/cm^2
[1]; [6]
  BMD Change (%): −11.6%
  Trabeculae volume Change (%): 4.8%
[1]; Group 5 (OVX + D30): 30 mg/kg/day, oral, spine L3-L6, micro-CT
  Trabeculae volume(mm^2) Avg. ± SD: 21.7 ± 2.43 mm^2
[1]; Group 6 (OVX + D90): 90 mg/kg/day, oral, five day a week
  BMD (g/cm^2) Avg. ± SD: 0.063 ± 0.005 g/cm^2
[1]; [7]
  BMD Change (%): −8.7%
  Trabeculae volume Change (%): 44.4%
[1]; Group 6 (OVX + D90): 90 mg/kg/day, oral, spine L3-L6, micro-CT
  Trabeculae volume(mm^2) Avg. ± SD: 29.9 ± 0.83 mm^2
[1]; [8]
  BMD Change (%): −15.9%
  Trabeculae volume Change (%): 26.1%
  BMD (g/cm^2) Avg. ± SD: 0.058 ± 0.006 g/cm^2
[1]; Group 7 (OVX + W30): 90 mg/kg/week (30 mpkW), once a week, micro-CT
  Trabeculae volume(mm^2) Avg. ± SD: 26.1 ± 1.87 mm^2
[1]; OVX mice, four weeks administration
  therapeutic effect on bone mass compared with alendronate: exceed that of alendronate
[1]; OVX mice, four weeks administration, DEXA
  effect on bone mineral density (BMD) versus OVX group: decrease in bone mineral density to lesser extents compared to the OVX group
[1]; OVX mice, four weeks administration, micro-CT
  effect on bone mass (BV/TV): restrain the decrease of bone mass, but also to increase the bone density to a higher level than before ovariectomy

## O=C(NCCCn1ccnc1)c1cc(-c2ccc([N+](=O)[O-])cc2)on1 [Derivative (114), 5-(4-nitro-phenyl)-isoxazole-3-carboxylic acid (3-imidazol-1-yl-propyl)-amide]
[2]; Conc. 1 μM
  Emax at 1 µM: 31%
[3]; Con. 1 μM
  Emax at 1 µM: 31%
[4]
  activity at 11 µM: 339%
